Test results: PubChem BioAssay AID2060907 (Molecular Pharmacology Branch, DTP, NCI, 2025)

Tested on: 388556-164-R-J1-PDC complex spheroid viability
Assay: Anticancer human tumor 388556-164-R-J1-PDC patient-derived colon adenocarcinoma cell line growth inhibition [RAS]
Conditions: for IC50: curve of first compound; for viability, T/C: stronger effect = lower value
Procedure, shortened: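 Tumour cells grown as complex spheroids with HUVEC endothelial cells and mesenchymal stem cells, treated with RAS pathway inhibitor combinations. Each agent spans half-log steps from near clinical Cmax, or 10 microM where Cmax is unknown.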

[1] = second compound 0.000949 µM, first compound 0.00316 µM
[2] = second compound 0.000949 µM, first compound 0.01 µM
[3] = second compound 0.000949 µM, first compound 0.0316 µM
[4] = second compound 0.000949 µM, first compound 0.1 µM
[5] = second compound 0.003 µM, first compound 0.00316 µM
[6] = second compound 0.003 µM, first compound 0.01 µM
[7] = second compound 0.003 µM, first compound 0.0316 µM
[8] = second compound 0.003 µM, first compound 0.1 µM
[9] = second compound 0.00949 µM, first compound 0.00316 µM
[10] = second compound 0.00949 µM, first compound 0.01 µM
[11] = second compound 0.00949 µM, first compound 0.0316 µM
[12] = second compound 0.00949 µM, first compound 0.1 µM
[13] = second compound 0.03 µM, first compound 0.00316 µM
[14] = second compound 0.03 µM, first compound 0.01 µM
[15] = second compound 0.03 µM, first compound 0.0316 µM
[16] = second compound 0.03 µM, first compound 0.1 µM
[17] = second compound 0.0949 µM, first compound 0.00316 µM
[18] = second compound 0.0949 µM, first compound 0.01 µM
[19] = second compound 0.0949 µM, first compound 0.0316 µM
[20] = second compound 0.0949 µM, first compound 0.1 µM
[21] = second compound 0.3 µM, first compound 0.00316 µM
[22] = second compound 0.3 µM, first compound 0.01 µM
[23] = second compound 0.3 µM, first compound 0.0316 µM
[24] = second compound 0.3 µM, first compound 0.1 µM
[25] = second compound 0.000949 µM, first compound 0.316 µM
[26] = second compound 0.000949 µM, first compound 1 µM
[27] = second compound 0.000949 µM, first compound 3.16 µM
[28] = second compound 0.000949 µM, first compound 10 µM
[29] = second compound 0.003 µM, first compound 0.316 µM
[30] = second compound 0.003 µM, first compound 1 µM
[31] = second compound 0.003 µM, first compound 3.16 µM
[32] = second compound 0.003 µM, first compound 10 µM
[33] = second compound 0.00949 µM, first compound 0.316 µM
[34] = second compound 0.00949 µM, first compound 1 µM
[35] = second compound 0.00949 µM, first compound 3.16 µM
[36] = second compound 0.00949 µM, first compound 10 µM
[37] = second compound 0.03 µM, first compound 0.316 µM
[38] = second compound 0.03 µM, first compound 1 µM
[39] = second compound 0.03 µM, first compound 3.16 µM
[40] = second compound 0.03 µM, first compound 10 µM
[41] = second compound 0.0949 µM, first compound 0.316 µM
[42] = second compound 0.0949 µM, first compound 1 µM
[43] = second compound 0.0949 µM, first compound 3.16 µM
[44] = second compound 0.0949 µM, first compound 10 µM
[45] = second compound 0.3 µM, first compound 0.316 µM
[46] = second compound 0.3 µM, first compound 1 µM
[47] = second compound 0.3 µM, first compound 3.16 µM
[48] = second compound 0.3 µM, first compound 10 µM
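Note: spheroids exposed to compound for 7 days before readout.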
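Throughout, for viability, T/C: 100% = DMSO vehicle control luminescence.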

`CC(C)n1nc(-c2ccc3oc(N)nc3c2)c2c(N)ncnc21` + CCn1c(-c2cc(N3CCN(C)CC3)cnc2C(C)OC)c2c3cc(ccc31)-c1csc(n1)CC(NC(=O)C1CC1C)C(=O)N1CCCC(N1)C(=O)OCC(C)(C)C2 showed an IC50 (second compound 0.000949 µM) of 0.0439 µM, an IC50 (second compound 0.003 µM) of 0.0355 µM and an IC50 (second compound 0.00949 µM) of 0.0162 µM. For the same compound, the IC50 (second compound 0.03 µM) was 0.0052 µM, the IC50 (second compound 0.0949 µM) was less than 0.000316 µM and the IC50 (second compound 0.3 µM) was less than 0.000316 µM. The viability, T/C (second compound 0.000949 µM, first compound 0.000316 µM) was 107%, the viability, T/C (second compound 0.000949 µM, first compound 0.001 µM) was 94.8% and the viability, T/C [1] was 73.7%. For the same compound, the viability, T/C [2] was 71.5%, the viability, T/C [3] was 56.4% and the viability, T/C [4] was 38%. It also gave a viability, T/C (second compound 0.003 µM, first compound 0.000316 µM) of 88.3%, a viability, T/C (second compound 0.003 µM, first compound 0.001 µM) of 80.4% and a viability, T/C [5] of 72.2%. The viability, T/C [6] was 68.1%, the viability, T/C [7] was 50.8% and the viability, T/C [8] was 34.9%. It also gave a viability, T/C (second compound 0.00949 µM, first compound 0.000316 µM) of 82.4%, a viability, T/C (second compound 0.00949 µM, first compound 0.001 µM) of 78.9% and a viability, T/C [9] of 59.4%. The viability, T/C [10] was 56.5%, the viability, T/C [11] was 47.1% and the viability, T/C [12] was 27.2%. It also gave a viability, T/C (second compound 0.03 µM, first compound 0.000316 µM) of 60.6%, a viability, T/C (second compound 0.03 µM, first compound 0.001 µM) of 55.1% and a viability, T/C [13] of 62.5%. For the same compound, the viability, T/C [14] was 37.6%, the viability, T/C [15] was 34.4% and the viability, T/C [16] was 21.5%. It also gave a viability, T/C (second compound 0.0949 µM, first compound 0.000316 µM) of 46.3%, a viability, T/C (second compound 0.0949 µM, first compound 0.001 µM) of 42.1% and a viability, T/C [17] of 39.1%. The viability, T/C [18] was 34.4%, the viability, T/C [19] was 27.9% and the viability, T/C [20] was 18.2%. It also gave a viability, T/C (second compound 0.3 µM, first compound 0.000316 µM) of 30.6%, a viability, T/C (second compound 0.3 µM, first compound 0.001 µM) of 32.6% and a viability, T/C [21] of 27.9%. For the same compound, the viability, T/C [22] was 23.5%, the viability, T/C [23] was 20.9% and the viability, T/C [24] was 17.1%.
For `CC1(O)CCCC1n1c(=O)c(C(F)F)cc2cnc(NC3CCN(S(C)(=O)=O)CC3)nc21` (stereo not drawn) + CCn1c(-c2cc(N3CCN(C)CC3)cnc2C(C)OC)c2c3cc(ccc31)-c1csc(n1)CC(NC(=O)C1CC1C)C(=O)N1CCCC(N1)C(=O)OCC(C)(C)C2, the IC50 (second compound 0.000949 µM) was greater than 10 µM, the IC50 (second compound 0.003 µM) was greater than 10 µM and the IC50 (second compound 0.00949 µM) was 9.45 µM. It also gave an IC50 (second compound 0.03 µM) greater than 10 µM, an IC50 (second compound 0.0949 µM) of less than 0.0316 µM and an IC50 (second compound 0.3 µM) of less than 0.0316 µM. The viability, T/C [3] was 91.1%, the viability, T/C [4] was 94.2% and the viability, T/C [25] was 89.8%. For the same compound, the viability, T/C [26] was 91.6%, the viability, T/C [27] was 94.1% and the viability, T/C [28] was 61.7%. The viability, T/C [7] was 102%, the viability, T/C [8] was 91.7% and the viability, T/C [29] was 90%. The viability, T/C [30] was 78.7%, the viability, T/C [31] was 87.3% and the viability, T/C [32] was 62.8%. The viability, T/C [11] was 78.8%, the viability, T/C [12] was 75.4% and the viability, T/C [33] was 80.6%. The viability, T/C [34] was 77.9%, the viability, T/C [35] was 72.7% and the viability, T/C [36] was 48.8%. For the same compound, the viability, T/C [15] was 62.6%, the viability, T/C [16] was 58.5% and the viability, T/C [37] was 64.9%. For the same compound, the viability, T/C [38] was 59.4%, the viability, T/C [39] was 66% and the viability, T/C [40] was 44.2%. The viability, T/C [19] was 46.7%, the viability, T/C [20] was 44% and the viability, T/C [41] was 47.3%. For the same compound, the viability, T/C [42] was 42.4%, the viability, T/C [43] was 45.7% and the viability, T/C [44] was 35.1%. For the same compound, the viability, T/C [23] was 31.2%, the viability, T/C [24] was 37% and the viability, T/C [45] was 33.4%. It also gave a viability, T/C [46] of 38.8%, a viability, T/C [47] of 38.1% and a viability, T/C [48] of 24.1%.
`CCN1CCN(Cc2ccc(Nc3ncc(F)c(-c4cc(F)c5nc(C)n(C(C)C)c5c4)n3)nc2)CC1` + CCn1c(-c2cc(N3CCN(C)CC3)cnc2C(C)OC)c2c3cc(ccc31)-c1csc(n1)CC(NC(=O)C1CC1C)C(=O)N1CCCC(N1)C(=O)OCC(C)(C)C2 showed an IC50 (second compound 0.000949 µM) greater than 1 µM, an IC50 (second compound 0.003 µM) greater than 1 µM and an IC50 (second compound 0.00949 µM) of 0.879 µM. It also gave an IC50 (second compound 0.03 µM) of 0.219 µM, an IC50 (second compound 0.0949 µM) of less than 0.00316 µM and an IC50 (second compound 0.3 µM) of less than 0.00316 µM. It also gave a viability, T/C [1] of 97.5%, a viability, T/C [2] of 92.2% and a viability, T/C [3] of 93.1%. The viability, T/C [4] was 79.4%, the viability, T/C [25] was 75% and the viability, T/C [26] was 75.2%. For the same compound, the viability, T/C [5] was 96%, the viability, T/C [6] was 96.8% and the viability, T/C [7] was 76.6%. The viability, T/C [8] was 71.3%, the viability, T/C [29] was 66.2% and the viability, T/C [30] was 58.7%. For the same compound, the viability, T/C [9] was 79.8%, the viability, T/C [10] was 78.6% and the viability, T/C [11] was 68.5%. The viability, T/C [12] was 58.1%, the viability, T/C [33] was 62.7% and the viability, T/C [34] was 46.8%. The viability, T/C [13] was 59%, the viability, T/C [14] was 64.4% and the viability, T/C [15] was 65.9%. For the same compound, the viability, T/C [16] was 57.9%, the viability, T/C [37] was 46.2% and the viability, T/C [38] was 38.7%. It also gave a viability, T/C [17] of 45.9%, a viability, T/C [18] of 41.2% and a viability, T/C [19] of 35.4%. For the same compound, the viability, T/C [20] was 30.8%, the viability, T/C [41] was 34% and the viability, T/C [42] was 31.4%. The viability, T/C [21] was 33.2%, the viability, T/C [22] was 32.3% and the viability, T/C [23] was 31.9%. The viability, T/C [24] was 30.8%, the viability, T/C [45] was 29.5% and the viability, T/C [46] was 31.5%.
`C[C@@H](NC(=O)c1ncnc(N)c1Cl)c1ncc(C(=O)Nc2cc(C(F)(F)F)c(Cl)cn2)s1` + CCn1c(-c2cc(N3CCN(C)CC3)cnc2C(C)OC)c2c3cc(ccc31)-c1csc(n1)CC(NC(=O)C1CC1C)C(=O)N1CCCC(N1)C(=O)OCC(C)(C)C2 gave an IC50 (second compound 0.000949 µM) greater than 10 µM, an IC50 (second compound 0.003 µM) greater than 10 µM and an IC50 (second compound 0.00949 µM) greater than 10 µM. It also gave an IC50 (second compound 0.03 µM) greater than 10 µM, an IC50 (second compound 0.0949 µM) greater than 10 µM and an IC50 (second compound 0.3 µM) of less than 0.0316 µM. It also gave a viability, T/C [3] of 96.3%, a viability, T/C [4] of 127% and a viability, T/C [25] of 105%. The viability, T/C [26] was 117%, the viability, T/C [27] was 129% and the viability, T/C [28] was 109%. The viability, T/C [7] was 114%, the viability, T/C [8] was 100% and the viability, T/C [29] was 86.5%. The viability, T/C [30] was 101%, the viability, T/C [31] was 111% and the viability, T/C [32] was 105%. It also gave a viability, T/C [11] of 85%, a viability, T/C [12] of 87.1% and a viability, T/C [33] of 89.5%. The viability, T/C [34] was 82.2%, the viability, T/C [35] was 102% and the viability, T/C [36] was 104%. For the same compound, the viability, T/C [15] was 75.7%, the viability, T/C [16] was 67.9% and the viability, T/C [37] was 91%. The viability, T/C [38] was 75.1%, the viability, T/C [39] was 78.8% and the viability, T/C [40] was 72.4%. For the same compound, the viability, T/C [19] was 50.2%, the viability, T/C [20] was 54.3% and the viability, T/C [41] was 54.3%. It also gave a viability, T/C [42] of 63.9%, a viability, T/C [43] of 71% and a viability, T/C [44] of 61.4%. For the same compound, the viability, T/C [23] was 34.3%, the viability, T/C [24] was 33.2% and the viability, T/C [45] was 38.6%. The viability, T/C [46] was 41.6%, the viability, T/C [47] was 38.5% and the viability, T/C [48] was 44.1%.
